Assay type in all cases: cell-based
Test [1] has as its system pseudotype VSV (expressing GFP) having the surface glycoprotein of Ebola virus (zaire sp.). Put plainly: organism not typed. Particulars: for IC50: Vero C1008; for activity at 0.02 µM: Compound Conc. 0.020 μM; for activity at 0.078 µM: Compound Conc. 0.078 μM; for activity at 0.312 µM: Compound Conc. 0.312 μM; for activity at 0.625 µM: Compound Conc. 0.625 μM; for activity at 1.25 µM: Compound Conc. 1.25 μM; for activity at 2.5 µM: Compound Conc. 2.5 μM; for activity at 5 µM: Compound Conc. 5 μM.

The test system of test [2] is sudan Ebola virus (pseudotype VSV). Put plainly: microbe, parasite or virus in culture. Particulars: Sudan ebolavirus, read-out: C values.
Test [3] concerns bundibugyo Ebola virus (pseudotype VSV). Kind of test: microbe, parasite or virus in culture. Particulars: read-out: C values.
Test [4] concerns tai forest Ebola virus (pseudotype VSV). Kind of test: microbe, parasite or virus in culture. Particulars: read-out: C values.
For test [5], the system named is reston Ebola virus (pseudotype VSV). Kind of test: microbe, parasite or virus in culture. Particulars: Reston ebolavirus, read-out: C values.
Test [6] relates to Marburgvirus (Angola strain) (pseudotype VSV). Kind of test: microbe, parasite or virus in culture. Particulars: Orthomarburgvirus, read-out: C values.
Where [7] appears, read: Vesicular stomatitis virus, Vero C1008, 18 h, read-out: Viral Infection rate (%).

Take `COc1ccc(N(CC2CCN(C)CC2)S(=O)(=O)c2ccccc2)c(-c2ccccc2)c1` [4-20]: the IC50 in test [1] was around 0.05 µM. Moreover, the activity at 0.005 µM in test [1] (Vesicular stomatitis virus, Vero C1008, 18 h, Compound Conc. 0.005 μM, read-out: Viral Infection rate (%)) is 91.8%. Moreover, in test [1] (setting [7]), the activity at 0.02 µM worked out at 78.8%, the activity at 0.078 µM worked out at 43.7%, the activity at 0.312 µM was 4.58% and the activity at 0.625 µM came out at 2.58%. Moreover, in test [1] (setting [7]), the activity at 1.25 µM stood at 0.23%, the activity at 2.5 µM turned out to be 0.09% and the activity at 5 µM was determined as 0.17%. Also, the IC50 in test [2] is around 0.3 µM. Further, in test [3], the IC50 is around 0.05 µM. In test [4], the IC50 is 0.5 to 1 µM. For the same compound, in test [5], the IC50 is around 1 µM. Further, the IC50 in test [6] is 1 to 5 µM.

`CCN1CCC(CN(c2ccc(OC)cc2-c2ccccc2)S(=O)(=O)c2ccccc2)CC1` [4-21] came in with an IC50 in test [1] of around 0.05 µM. In test [1] (setting [7]), the activity at 0.02 µM came out at 64.6%, the activity at 0.078 µM was 28.5%, the activity at 0.312 µM turned out to be 0.75% and the activity at 0.625 µM was determined as 0.22%. Besides, in test [1] (setting [7]), the activity at 1.25 µM is 0.18%, the activity at 2.5 µM turned out to be 0.12% and the activity at 5 µM was found to be 0.17%. The IC50 in test [2] was around 0.3 µM. Further, in test [3], the IC50 is around 0.05 µM. The IC50 in test [4] lay in the range of 0.5 to 1 µM. Moreover, the IC50 in test [5] was around 1 µM. In test [6], the IC50 was in the range of 1 to 5 µM.

`COc1ccc(N(CCCN(C)C)S(=O)(=O)c2ccccc2)c(-c2ccccc2)c1` [4-27, N-[3-(dimethylamimo)propyl]-N-(4-methoxy-2-phenyl-phenyl)benzensulfonamide] gave an IC50 in test [1] of around 0.05 µM. In test [1] (setting [7]), the activity at 0.02 µM was determined as 81.5%, the activity at 0.078 µM was found to be 45%, the activity at 0.312 µM came to 3.49% and the activity at 0.625 µM was determined as 0.4%. In test [1] (setting [7]), the activity at 1.25 µM was determined as 0.18%, the activity at 2.5 µM stood at 0.14% and the activity at 5 µM stood at 0.2%. For the same compound, in test [2], the IC50 was around 0.3 µM. For the same compound, the IC50 in test [3] was around 0.05 µM. The IC50 in test [4] was in the range of 0.5 to 1 µM. The IC50 in test [5] is around 1 µM. The IC50 in test [6] lay in the range of 1 to 5 µM.

(Values after US20210107871A1 (priority 2017, published 2021).)
